The test relates to B6C3F1 mice, colon carcinoma 38 s.c., T/C. Description: NCI In Vivo Anticancer Drug Screen. Data for tumor model Colon Carcinoma 38 (subcutaneous) in B6C3F1 mice. As to conditions: higher = larger tumour. As to the method: The antitumor activity of compounds was measured in mice bearing transplantable tumors. Survival or tumor size were measured and the results are expressed as the measurement made in the treated group (T) divided by the measurement made in the vehicle treated control group (C). The tumor model used in this assay is Colon Carcinoma 38 (subcutaneous) in B6C3F1 mice

Where [1] appears, read: endpoint: median tumor weight (est.), dose: 6.25 mg/kg/injection, schedule: Q07DX002 (ip), vehicle: Klucel (hydroxypropylcellulose) (HPC).
The mark [2] stands for this setting: endpoint: median tumor weight (est.), dose: 25.0 mg/kg/injection, schedule: Q07DX002 (ip), vehicle: Klucel (hydroxypropylcellulose) (HPC).
The mark [3] stands for this setting: endpoint: median tumor weight (est.), dose: 50.0 mg/kg/injection, schedule: Q07DX002 (ip), vehicle: saline with Tween-80.
Setting [4] is: endpoint: median tumor weight (est.), dose: 100.0 mg/kg/injection, schedule: Q07DX002 (ip), vehicle: saline with Tween-80.
Setting [5] is: endpoint: median tumor weight (est.), dose: 200.0 mg/kg/injection, schedule: Q07DX002 (ip), vehicle: saline with Tween-80.
The mark [6] stands for this setting: endpoint: median tumor weight (est.), dose: 25.0 mg/kg/injection, schedule: Q07DX002 (ip), vehicle: saline with Tween-80.
Setting [7] is: endpoint: median tumor weight (est.), dose: 12.5 mg/kg/injection, schedule: Q07DX002 (ip), vehicle: Klucel (hydroxypropylcellulose) (HPC).
Where [8] appears, read: endpoint: median tumor weight (est.), dose: 50.0 mg/kg/injection, schedule: Q07DX002 (ip), vehicle: Klucel (hydroxypropylcellulose) (HPC).
Setting [9] is: endpoint: median tumor weight (est.), dose: 100.0 mg/kg/injection, schedule: Q07DX002 (ip), vehicle: Klucel (hydroxypropylcellulose) (HPC).
The mark [10] stands for this setting: endpoint: median tumor weight (est.), dose: 200.0 mg/kg/injection, schedule: Q07DX002 (ip), vehicle: Klucel (hydroxypropylcellulose) (HPC).
Setting [11] is: endpoint: median tumor weight (est.), dose: 50.0 mg/kg/injection, schedule: Q07DX002 (ip), vehicle: saline.
Setting [12] is: endpoint: median tumor weight (est.), dose: 100.0 mg/kg/injection, schedule: Q07DX002 (ip), vehicle: saline.
Where [13] appears, read: endpoint: median tumor weight (est.), dose: 200.0 mg/kg/injection, schedule: Q07DX002 (ip), vehicle: saline.
[14] abbreviates: endpoint: median tumor weight (est.), dose: 400.0 mg/kg/injection, schedule: Q07DX002 (ip), vehicle: saline.
Where [15] appears, read: endpoint: median tumor weight (est.), dose: 50.0 mg/kg/injection, schedule: Q07DX002 (ip), vehicle: suspension in saline.
The mark [16] stands for this setting: endpoint: median tumor weight (est.), dose: 100.0 mg/kg/injection, schedule: Q07DX002 (ip), vehicle: suspension in saline.
[17] abbreviates: endpoint: median tumor weight (est.), dose: 200.0 mg/kg/injection, schedule: Q07DX002 (ip), vehicle: suspension in saline.

Molecules are shown by their SMILES. Results filed as inconclusive are left out.

With `O=NN(CCF)C(=O)NC1CCCCC1`, the T/C runs as follows: under setting [1], 115 % of control; under setting [2], 77 % of control.

Take `S=P(N1CC1)(N1CC1)N1CC1`: the T/C was 58 % of control (endpoint: median tumor weight (est.), dose: 3.0 mg/kg/injection, schedule: Q07DX003 (ip), vehicle: saline); 57 % of control (endpoint: median tumor weight (est.), dose: 6.0 mg/kg/injection, schedule: Q07DX003 (ip), vehicle: saline); 23 % of control (endpoint: median tumor weight (est.), dose: 12.0 mg/kg/injection, schedule: Q07DX003 (ip), vehicle: saline).

As for `O=C1SC(c2ccccc2)=S=C1c1ccccc1`, the T/C by setting is: under setting [3], 152 % of control; under setting [4], 114 % of control; under setting [5], 104 % of control; (endpoint: median tumor weight (est.), dose: 400.0 mg/kg/injection, schedule: Q07DX002 (ip), vehicle: saline with Tween-80) 120 % of control; (endpoint: median tumor weight (est.), dose: 800.0 mg/kg/injection, schedule: Q07DX002 (ip), vehicle: saline with Tween-80) 104 % of control.

In the case of `C[CH2][Sn]([CH2]C)([CH2]C(=O)OC)[CH2]C(=O)OC`, the T/C was 51 % of control (endpoint: median tumor weight (est.), dose: 1.56 mg/kg/injection, schedule: Q07DX002 (ip), vehicle: saline with Tween-80); 113 % of control (endpoint: median tumor weight (est.), dose: 3.12 mg/kg/injection, schedule: Q07DX002 (ip), vehicle: saline with Tween-80); 109 % of control (endpoint: median tumor weight (est.), dose: 6.25 mg/kg/injection, schedule: Q07DX002 (ip), vehicle: saline with Tween-80); 65 % of control (endpoint: median tumor weight (est.), dose: 12.5 mg/kg/injection, schedule: Q07DX002 (ip), vehicle: saline with Tween-80); 74 % of control under setting [6].

Consider `O=C(O)CSc1c(Cl)c(=O)oc2ccc(Cl)cc12`, for which the T/C is 73 % of control under setting [7]; 58 % of control under setting [2]; 57 % of control under setting [8]; 86 % of control under setting [9]; 67 % of control under setting [10].

With `CCCCCCCCCCCCCCCCCCCCCC(=O)Nc1ccn(C2OC(CO)C(O)C2O)c(=O)n1` (stereo not drawn), the T/C under setting [4] was 83 % of control and the T/C under setting [5] is 35 % of control.

As to `Nc1ncn(C2OC(CO)C(O)C2O)c(=O)n1` (stereo not drawn), the T/C runs as follows: (endpoint: median tumor weight (est.), dose: 4.0 mg/kg/injection, schedule: Q07DX002 (ip), vehicle: saline) 60 % of control; (endpoint: median tumor weight (est.), dose: 8.0 mg/kg/injection, schedule: Q07DX002 (ip), vehicle: saline) 82 % of control; (endpoint: median tumor weight (est.), dose: 16.0 mg/kg/injection, schedule: Q07DX002 (ip), vehicle: saline) 33 % of control; (endpoint: median tumor weight (est.), dose: 32.0 mg/kg/injection, schedule: Q07DX002 (ip), vehicle: saline) 6 % of control; (endpoint: median tumor weight (est.), dose: 64.0 mg/kg/injection, schedule: Q07DX002 (ip), vehicle: saline) 2 % of control.

Consider `O=[N+]([O-])c1ccc(N(CCO)CCO)c2c1no[n+]2[O-]`, for which the T/C is 85 % of control under setting [6] and 63 % of control under setting [3].

`N=C(N)CCCCCCCCC(=N)N`: the T/C is 169 % of control under setting [1], 109 % of control under setting [7] and 109 % of control under setting [2].

With `Cc1cc(=O)c2cccc(CC(=O)O)c2o1`, under “endpoint: median tumor weight (est.), dose: 400.0 mg/kg/injection, schedule: Q07DX002 (ip), vehicle: Klucel (hydroxypropylcellulose) (HPC)”, the T/C is 117 % of control.

For the compound `CC(=O)CC(=O)CCC(=O)O`, the T/C is, setting by setting: under setting [11], 87 % of control; under setting [12], 88 % of control; under setting [13], 86 % of control; under setting [14], 89 % of control.

Consider `CC(=O)OC1C(O)C(C)OC(OC2C(OC(=O)C3CCC4C(C3)OC3(CC(OC(=O)/C=C/c5ccccc5)C(C)CO3)C43CO3)OC(C)C(O)C2OC(C)=O)C1O` (stereo not drawn), for which the T/C by setting is: (endpoint: median tumor weight (est.), dose: 3.75 mg/kg/injection, schedule: Q07DX002 (ip), vehicle: distilled water + Tween-80) 93 % of control; (endpoint: median tumor weight (est.), dose: 7.5 mg/kg/injection, schedule: Q07DX002 (ip), vehicle: distilled water + Tween-80) 95 % of control; (endpoint: median tumor weight (est.), dose: 15.0 mg/kg/injection, schedule: Q07DX002 (ip), vehicle: distilled water + Tween-80) 64 % of control; (endpoint: median tumor weight (est.), dose: 30.0 mg/kg/injection, schedule: Q07DX002 (ip), vehicle: distilled water + Tween-80) 168 % of control; (endpoint: median tumor weight (est.), dose: 60.0 mg/kg/injection, schedule: Q07DX002 (ip), vehicle: distilled water + Tween-80) 168 % of control.

Regarding `CCN(CC)CCNc1ccc(C)c2sc3ccccc3c(=O)c12`, the T/C under setting [15] is 66 % of control, the T/C under setting [16] is 42 % of control and the T/C under setting [17] was 2 % of control.

As to `O=S(=O)([O-])c1ccc(-c2c3nc(c(-c4ccc(S(=O)(=O)[O-])cc4)c4ccc([n-]4)c(-c4ccc(S(=O)(=O)[O-])cc4)c4nc(c(-c5ccc(S(=O)(=O)[O-])cc5)c5ccc2[n-]5)C=C4)C=C3)cc1.[Mn+3].[Na+]`, the T/C (endpoint: median tumor weight change, dose: 226.9 mg/kg/injection, schedule: Q07DX002 (iv), vehicle: water) was 67 % of control; the T/C (endpoint: median tumor weight change, dose: 340.9 mg/kg/injection, schedule: Q07DX002 (iv), vehicle: water) is 77 % of control; the T/C (endpoint: median tumor weight change, dose: 515.0 mg/kg/injection, schedule: Q07DX002 (iv), vehicle: water) was 110 % of control.

For the compound `O=C(O)Cc1cccc2c(=O)c(-c3ccccc3)c(-c3ccccc3)oc12`, the T/C under setting [9] was 11 % of control.

Take `Cc1cc(N/N=C/c2ccccn2)nc2ccccc12`: the T/C is 65 % of control under setting [8], 90 % of control under setting [9] and 74 % of control under setting [10].

On to `CCn1cnc2c(=S)nc[nH]c21`, for which the T/C is 85 % of control under setting [11]; 92 % of control under setting [15]; 73 % of control under setting [12]; 58 % of control under setting [16]; 55 % of control under setting [13]; 16 % of control under setting [17]. Also, under setting [14], the T/C was 1 % of control.

`Cc1cc(NCCCCCCCCNc2cc(C)nc3cc(N(C)C)ccc23)c2ccc(N(C)C)cc2n1`: the T/C is, setting by setting: (endpoint: median tumor weight (est.), dose: 3.12 mg/kg/injection, schedule: Q07DX002 (ip), vehicle: distilled water + Tween-80 + alcohol) 105 % of control; (endpoint: median tumor weight (est.), dose: 6.25 mg/kg/injection, schedule: Q07DX002 (ip), vehicle: distilled water + Tween-80 + alcohol) 78 % of control; (endpoint: median tumor weight (est.), dose: 12.5 mg/kg/injection, schedule: Q07DX002 (ip), vehicle: distilled water + Tween-80 + alcohol) 69 % of control; (endpoint: median tumor weight (est.), dose: 25.0 mg/kg/injection, schedule: Q07DX002 (ip), vehicle: distilled water + Tween-80 + alcohol) 160 % of control.

As for `Cc1c2cc[n+](CCN3CCCCC3)cc2c(C)c2c1[nH]c1ccc(O)cc12`, the T/C is 83 % of control (endpoint: median tumor weight (est.), dose: 6.25 mg/kg/injection, schedule: Q07DX002 (ip), vehicle: suspension in saline); 71 % of control (endpoint: median tumor weight (est.), dose: 12.5 mg/kg/injection, schedule: Q07DX002 (ip), vehicle: suspension in saline); 62 % of control (endpoint: median tumor weight (est.), dose: 25.0 mg/kg/injection, schedule: Q07DX002 (ip), vehicle: suspension in saline); 53 % of control under setting [15]; 34 % of control under setting [16].

Consider `N[C@@H](Cc1ccc(N(CCCl)CCCl)cc1)C(=O)O`, for which the T/C was 35 % of control (endpoint: median tumor weight (est.), dose: 1.2 mg/kg/injection, schedule: Q01DX006 (ip), vehicle: saline); 62 % of control (endpoint: median tumor weight (est.), dose: 1.8 mg/kg/injection, schedule: Q01DX006 (ip), vehicle: saline); 38 % of control (endpoint: median tumor weight (est.), dose: 2.7 mg/kg/injection, schedule: Q01DX006 (ip), vehicle: saline); 50 % of control (endpoint: median tumor weight (est.), dose: 4.0 mg/kg/injection, schedule: Q01DX006 (ip), vehicle: saline).

In the case of `CCN(CC)CCOCCO`, the T/C runs as follows: under setting [15], 150 % of control; under setting [16], 160 % of control.

Turning to `O=C(O)COc1cccc2c(=O)cc(-c3ccccc3)oc12`, the T/C was 52 % of control under setting [12] and 109 % of control under setting [13].

Turning to `OCCO`, the T/C by setting is: (endpoint: median tumor weight (est.), dose: 1.0 % in 0.5 ml injection vol, schedule: Q07DX002 (ip), vehicle: water) 181 % of control; (endpoint: median tumor weight (est.), dose: 2.0 % in 0.5 ml injection vol, schedule: Q07DX002 (ip), vehicle: water) 160 % of control.

The values above are taken from PubChem BioAssay AID214 (DTP/NCI, 2004).
